We go through six compounds from patent US7566697B2, “Carboxy protection strategies for acidic C-terminal amino acids in chemical ligation of oligopeptides” (Amylin Pharmaceuticals, Inc., priority 2002, dated 2009).

Residues, ends and D or L forms follow the SMILES beside them. Primed or numbered codes have the meaning given here. No end group written: not given here. *: point of attachment. diMeOPac = (2',4'-dimethoxy)phenacyl ester on the Asp side chain, COc1ccc(C(=O)C*)c(OC)c1; Fmoc = O=C(OCC1c2ccccc2-c2ccccc21)*; X1 = CC(O*)C(=O)c1ccccc1; OPac′ = phenacyl ester; X2 = ClC(Cl)(Cl)CO*

The conditions of data set [1]: buffer, pH 6.5.
Protocol: The C-terminal unprotected peptide (1.5 equivalent) and the N-terminal peptide (1 equivalent) were solubilized in freshly degassed 6M guanidinium hydrochloride, 0.2 M sodium phosphate, pH 7.5 buffer at a concentration of 2.5 mM each. After addition of 1% thiophenol and 1% benzyl mercaptan the pH was adjusted to 6.5 (or different thiols concentration or pH as reported in the text). Aliquots of this solution were treated with equal volumes of BME for 5 minutes and then with 10% TCEP for 10 minutes to completely hydrolyse any thiol adduct before HPLC analysis. Ligation reaction analysis was conducted using a gradient starting from 10% of B with a gradient slope of 1.66% of B per minute. Base line resolution of the different isomerization product was achieved using a gradient starting at 20% of B and with an increase of 0.33% B.
A further data set has as its target SV8 protease (Staphylococcus aureus, UniProt P0C1U8). The settings on record: 1 unit/20 μg, 24 hours at 37° C.

SV8 protease, sequence (P0C1U8 69-336): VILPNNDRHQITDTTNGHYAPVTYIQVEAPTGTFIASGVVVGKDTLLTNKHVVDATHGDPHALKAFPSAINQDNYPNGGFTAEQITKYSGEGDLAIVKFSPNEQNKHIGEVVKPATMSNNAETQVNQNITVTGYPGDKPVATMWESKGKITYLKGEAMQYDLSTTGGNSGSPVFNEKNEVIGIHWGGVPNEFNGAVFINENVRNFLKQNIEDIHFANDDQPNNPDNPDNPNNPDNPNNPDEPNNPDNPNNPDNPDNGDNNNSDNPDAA
Protocol for SV8 protease: Peptides were digested using the enzyme SV8 protease. The peptides, solubilized to a final 5 mM concentration in 0.1 M NH4HCO3 and 0.3% BME, were digested by adding the enzyme solution (250 unit/ml), keeping the enzyme/peptide ratio of 1 unit/20 μg. The reaction was stopped after 24 hours at 37° C. by treatment with equal volumes of 10% TCEP, and extent of digestion assayed by RP-HPLC. Digested fragments were characterized by ESI-MS.

For `CC(=O)N[C@@H](CC(=O)OC(C)C(=O)c1ccccc1)C(=O)N[C@@H](Cc1ccc(O)cc1)C(=O)N[C@@H](C)C(=O)N[C@@H](CCCCN)C(=O)N[C@@H](Cc1ccc(O)cc1)C(=O)N[C@@H](C)C(=O)N[C@@H](CCCCN)C(=O)N[C@@H](CC(C)C)C(=O)O` (some centres unmarked) [OMop, Ac-D(OMop)YAKYAKL] (Ac-D(X1)YAKYAKL-OH), in data set [1], the “Hydrolysis t1/2” value came out at 9.9 h and the “half-life in the ligation condition” value was found to be 500 h.

Consider `CC(C)C[C@H](NC(=O)[C@H](CCCCN)NC(=O)[C@H](C)NC(=O)[C@H](Cc1ccc(O)cc1)NC(=O)[C@H](CCCCN)NC(=O)[C@H](C)NC(=O)[C@H](Cc1ccc(O)cc1)NC(=O)[C@H](CC(=O)OCC(Cl)(Cl)Cl)NC(=O)OCC1c2ccccc2-c2ccccc21)C(=O)O` [Troc, Fmoc-D(Troc)YAKYAKL] (Fmoc-D(X2)YAKYAKL-OH), for which, in data set [1], the “Hydrolysis t1/2” value turned out to be 1.5 h and the “half-life in the ligation condition” value is listed as “less than 2 hours”.

Ac-D(OPac)YAKYAKL (Ac-D(OPac′)YAKYAKL): the “Hydrolysis t1/2” value in data set [1] was 1.2 h.

Ac-D(diMeOPac)YAKYAKL [OdiMeOPac]: the “Hydrolysis t1/2” value in data set [1] worked out at 3.8 h.

LYRAD(β)CSYUFL [product 6]: the “digestion by SV8 protease” value on SV8 protease is reported as “unaffected by the enzyme”.

Take LYRAE(γ)CSYRFL [product 7]: the “digestion by SV8 protease” value on SV8 protease is given as “unaffected by the enzyme”.
